Measurements: the supplement of paper PMC10307832

Assays:
Test in all cases: relative viability (nuclei count vs DMSO), 5 days (fraction); higher = more cells survive
FH535 + Dasatinib = compound: CC1=C(C=CC(=C1)[N+](=O)[O-])NS(=O)(=O)C2=C(C=CC(=C2)Cl)Cl [FH535] + Cc1nc(Nc2ncc(C(=O)Nc3c(C)cccc3Cl)s2)cc(N2CCN(CCO)CC2)n1 [Dasatinib] (partner 0.075 µM)
Summary of the method: (§1)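 Relative viability was taken as the ratio of nuclei in treated wells to nuclei in vehicle wells. Lung cancer cell lines in 1536-well plates received compounds by pin tool one day after seeding, either one drug alone or a fixed anchor-drug dose plus five library-drug doses (not always all listed) in √10 steps. Nuclei were counted on 4× images after 5 days of treatment, and values are medians of duplicate plates.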

FH535 + AZD7762 = compound: CC1=C(C=CC(=C1)[N+](=O)[O-])NS(=O)(=O)C2=C(C=CC(=C2)Cl)Cl [FH535] + NC(=O)Nc1cc(-c2cccc(F)c2)sc1C(=O)N[C@H]1CCCNC1 [AZD7762] (partner 0.2 µM)
Summary of the method: as §1

FH535 + Tozasertib = compound: CC1=C(C=CC(=C1)[N+](=O)[O-])NS(=O)(=O)C2=C(C=CC(=C2)Cl)Cl [FH535] + Cc1cc(Nc2cc(N3CCN(C)CC3)nc(Sc3ccc(NC(=O)C4CC4)cc3)n2)n[nH]1 [Tozasertib] (partner 0.1 µM)
Summary of the method: as §1

FH535 + Palbociclib = compound: CC1=C(C=CC(=C1)[N+](=O)[O-])NS(=O)(=O)C2=C(C=CC(=C2)Cl)Cl [FH535] + CC(=O)c1c(C)c2cnc(Nc3ccc(N4CCNCC4)cn3)nc2n(C2CCCC2)c1=O [Palbociclib] (partner 0.5 µM)
Summary of the method: as §1

FH535 + Trametinib = compound: CC1=C(C=CC(=C1)[N+](=O)[O-])NS(=O)(=O)C2=C(C=CC(=C2)Cl)Cl [FH535] + CC(=O)Nc1cccc(-n2c(=O)n(C3CC3)c(=O)c3c(Nc4ccc(I)cc4F)n(C)c(=O)c(C)c32)c1 [Trametinib] (partner 0.02 µM)
Summary of the method: as §1

Cell Line | relative viability (FH535 + Dasatinib; first compound 0.04 µM) | relative viability (FH535 + Dasatinib; first compound 0.1265 µM) | relative viability (FH535 + Dasatinib; first compound 0.4 µM) | relative viability (FH535 + Dasatinib; first compound 1.265 µM) | relative viability (FH535 + AZD7762; first compound 0.04 µM) | relative viability (FH535 + AZD7762; first compound 0.1265 µM) | relative viability (FH535 + AZD7762; first compound 0.4 µM) | relative viability (FH535 + AZD7762; first compound 1.265 µM) | relative viability (FH535 + Tozasertib; first compound 0.04 µM) | relative viability (FH535 + Tozasertib; first compound 0.1265 µM) | relative viability (FH535 + Tozasertib; first compound 0.4 µM) | relative viability (FH535 + Tozasertib; first compound 1.265 µM) | relative viability (FH535 + Palbociclib; first compound 0.04 µM) | relative viability (FH535 + Palbociclib; first compound 0.1265 µM) | relative viability (FH535 + Palbociclib; first compound 0.4 µM) | relative viability (FH535 + Palbociclib; first compound 1.265 µM) | relative viability (FH535 + Trametinib; first compound 0.04 µM) | relative viability (FH535 + Trametinib; first compound 0.1265 µM) | relative viability (FH535 + Trametinib; first compound 0.4 µM) | relative viability (FH535 + Trametinib; first compound 1.265 µM)
NCI-H650 | 0.4 | 0.462 | 0.429 | 0.309 | 0.877 | 1.03 | 1.18 | 0.67 | 0.603 | 0.783 | 0.766 | 0.51 | 0.282 | 0.35 | 0.332 | 0.266 | 0.887 | 0.953 | 1.04 | 0.795
NCI-H2009 | 0.256 | 0.307 | 0.269 | 0.277 | – | – | – | – | 0.777 | 0.806 | 0.747 | 0.631 | 0.243 | 0.174 | 0.229 | 0.215 | 0.306 | 0.316 | 0.251 | 0.24
EPLC-272H | 0.283 | 0.318 | 0.311 | 0.281 | 0.241 | 0.226 | 0.259 | 0.206 | 0.148 | 0.249 | 0.194 | 0.214 | 0.363 | 0.336 | 0.337 | 0.299 | 0.272 | 0.296 | 0.299 | 0.262
NCI-H596 | 0.673 | 0.574 | 0.604 | 0.55 | 1.04 | 1.18 | 0.933 | 1.05 | 0.947 | 0.992 | 0.931 | 0.696 | – | – | – | – | 0.814 | 0.864 | 0.854 | 0.748
NCI-H3122 | 0.703 | 0.782 | 0.713 | 0.719 | 1.03 | 0.98 | 0.984 | 0.933 | 0.329 | 0.367 | 0.475 | 0.369 | 0.169 | 0.218 | 0.195 | 0.187 | 0.188 | 0.274 | 0.2 | 0.22
NCI-H2085 | 0.271 | 0.174 | 0.284 | 0.217 | 1.03 | 1.06 | 0.783 | 0.828 | 0.845 | 0.784 | 0.726 | 0.522 | 0.507 | 0.45 | 0.448 | 0.365 | 0.567 | 0.624 | 0.503 | 0.403
NCI-H441 | 0.436 | 0.518 | 0.527 | 0.472 | 1.09 | 1.32 | 1.09 | 1.02 | 0.614 | 0.755 | 0.581 | 0.564 | 0.212 | 0.197 | 0.176 | 0.174 | 0.454 | 0.334 | 0.428 | 0.394
NCI-H2170 | 0.664 | 0.611 | 0.429 | 0.625 | 0.897 | 1.06 | 0.809 | 0.815 | 0.674 | 0.772 | 0.69 | 0.697 | 0.397 | 0.423 | 0.372 | 0.312 | 0.964 | 0.883 | 0.752 | 0.706
LC-2-ad | 0.417 | 0.571 | 0.437 | 0.409 | 0.809 | 0.828 | 0.744 | 0.697 | 0.437 | 0.439 | 0.578 | 0.457 | 0.481 | 0.482 | 0.476 | 0.441 | 0.886 | 0.878 | 0.88 | 0.766
SK-MES-1 | 0.407 | 0.47 | 0.343 | 0.292 | – | – | – | – | 0.952 | 0.954 | 0.751 | 0.658 | 0.305 | 0.301 | 0.312 | 0.263 | 0.503 | 0.541 | 0.577 | 0.552
NCI-H358 | 0.141 | 0.15 | 0.159 | 0.143 | 0.495 | 0.571 | 0.529 | 0.252 | 0.0899 | 0.0929 | 0.104 | 0.0851 | 0.121 | 0.129 | 0.129 | 0.134 | 0.134 | 0.143 | 0.124 | 0.127
A-427 | 0.54 | 0.826 | 0.657 | 0.564 | 0.768 | 0.795 | 0.768 | 0.622 | 0.175 | 0.205 | 0.243 | 0.159 | 0.532 | 0.575 | 0.546 | 0.474 | 0.712 | 0.752 | 0.675 | 0.61
NCI-H1666 | 0.833 | 0.85 | 0.716 | 0.64 | 0.727 | 0.899 | 0.772 | 0.747 | 0.6 | 0.544 | 0.631 | 0.545 | 0.674 | 0.639 | 0.614 | 0.631 | 0.861 | 0.869 | 0.905 | 0.69
LOU-NH91 | 0.573 | 0.613 | 0.388 | 0.267 | 0.767 | 0.779 | 0.608 | 0.428 | 0.634 | 0.68 | 0.633 | 0.33 | 0.458 | 0.536 | 0.548 | 0.497 | 0.729 | 0.819 | 0.75 | 0.525
ABC-1 | 0.584 | 0.619 | 0.4 | 0.36 | 0.706 | 0.664 | 0.756 | 0.549 | 0.181 | 0.216 | 0.218 | 0.217 | 0.715 | 0.641 | 0.458 | 0.583 | – | – | – | –
NCI-H1651 | 0.397 | 0.419 | 0.284 | 0.201 | 0.368 | 0.511 | 0.502 | 0.466 | 0.753 | 0.639 | 0.633 | 0.64 | 0.51 | 0.497 | 0.532 | 0.437 | 0.81 | 0.78 | 0.79 | 0.666
